Experimental data from ChEMBL document CHEMBL3600382, “A-ring substituted 17β-arylsulfonamides of 17β-aminoestra-1,3,5(10)-trien-3-ol as highly potent reversible inhibitors of steroid sulfatase” (Bioorg Med Chem, 2015).

Test system: MCF7
Assay: Cytotoxicity against human MCF7 cells assessed as inhibition of cell growth at 10 uM after 96 hrs by Cell Titer 96 Aqueous One solution Cell proliferation assay relative to control
Assay type: functional
Settings: MCF7, 96 h, read-out: GI

C[C@]12CC[C@@H]3c4ccc(O)cc4CC[C@H]3[C@@H]1CC[C@@]2(O)Cc1ccccc1
inhibition of growth at 10 µM: 51%
